The test has as its target T1, small-conductance Ca2+-activated K+ channels (SK channels, subtype 2) (Homo sapiens, UniProt Q9H2S1).
T1 construct: expressed in transfected cells; host or cells: HEK293
Nature of the test: whole-cell patch-clamp of ionic current through SK2 channels in HEK293 cells (SC100). The format is cell-based. The conditions noted are these: whole-cell patch-clamp, HEK293 cells expressing SK2 channels; concentration that increases the basal current by 100%. The method, boiled down: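 Whole-cell patch-clamp recording of current in HEK293 cells expressing SK2 channels. SC100 is the compound concentration that increases basal current by 100%.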
On the technique in general: The patch-clamp technique gives a direct electrical read-out from membranes.
Take `Cc1cc(NC2CCC(F)(F)CC2)nc(-n2[nH]c(=O)cc2N)n1` [IN11140-007-P1, 5-amino-1-(4-((4,4-difluorocyclohexyl)amino)-6-methylpyrimidin-2-yl)-1,2-dihydro-3H-pyrazol-3-one]: the “SC100 (μM)” value is on record as “+ (+ means >1 uM)”.
The value for `Cc1csc(-c2nc(N[C@@H]3CCCC[C@H]3O)cc(N3CCOCC3)n2)n1` [IN11140-058-P1] was “+ (+ means >1 uM)”; that for `Cc1ccn(-c2nc(NC3CCCCC3(F)F)cc(N3CCOCC3)n2)n1` (centres unmarked) [IN11140-062-P1] was “+ (+ means >1 uM)”.
Take `COc1cc(NC2CCCCC2(F)F)nc(-c2nc(C)cs2)n1` (centres unmarked) [IN11140-063-P1]: the “SC100 (μM)” value is recorded as “+ (+ means >1 uM)”.
On to `Cc1csc(-c2nc(NC3CCCCC3=O)cc(N3CCOCC3)n2)n1` (centres unmarked) [IN11140-065-P1, 2-((2-(4-methylthiazol-2-yl)-6-morpholinopyrimidin-4-yl)amino)cyclohexan-1-one], for which the “SC100 (μM)” value was “+ (+ means >1 uM)”.
For the compound `Cc1csc(-c2nc(NC3CCCCC3(F)F)cc(N3CCOCC3)n2)n1` (centres unmarked) [IN11140-066-P1], the “SC100 (μM)” value was “+ (+ means >1 uM)”.
The value for `CC(=O)c1cc(NC2CCCCC2(F)F)nc(-c2nc(C)cs2)n1` (centres unmarked) [IN11140-081-P1, 1-(6-((2,2-difluorocyclohexyl)amino)-2-(4-methylthiazol-2-yl)pyrimidin-4-yl) ethan-1-one] was “+ (+ means >1 uM)”; that for `Cc1csc(-c2nc(NC3CCCCC3(F)F)cc(C(C)O)n2)n1` (centres unmarked) [IN11140-083-P1, 1-(6-((2,2-difluorocyclohexyl)amino)-2-(4-methylthiazol-2-yl)pyrimidin-4-yl) ethan-1-ol] was “+ (+ means >1 uM)”.
Turning to `Cc1csc(-c2nc(N[C@@H]3CCCC[C@H]3F)cc(N3CCOCC3)n2)n1` [IN11140-086-P1], the “SC100 (μM)” value is “+ (+ means >1 uM)”.
Consider `Cc1csc(-c2nc(NC3CCCCC3(F)F)cc(C(C)F)n2)n1` (centres unmarked) [IN11140-089-P1, N-(2,2-difluorocyclohexyl)-6-(1-fluoroethyl)-2-(4-methylthiazol-2-yl)pyrimidin-4-amine], for which the “SC100 (μM)” value is “+ (+ means >1 uM)”.
For the compound `COc1cc(NC2CCCCC2OC)nc(-c2nc(C)cs2)n1` (centres unmarked) [IN11140-090-P1, 6-methoxy-N-(2-methoxycyclohexyl)-2-(4-methylthiazol-2-yl)pyrimidin-4-amine], the “SC100 (μM)” value is reported as “+ (+ means >1 uM)”.
In the case of `COc1cc(N[C@@H]2CCCC[C@H]2F)nc(-c2nc(C)cs2)n1` [IN11140-096-P1], the “SC100 (μM)” value was “+ (+ means >1 uM)”.
The value for `COC(C)c1cc(NC2CCCCC2(F)F)nc(-c2nc(C)cs2)n1` (centres unmarked) [IN11140-099-P1, N-(2,2-difluorocyclohexyl)-6-(1-methoxyethyl)-2-(4-methylthiazol-2-yl)pyrimidin-4-amine] was “+ (+ means >1 uM)”; that for `COc1cc(NC2CCC(F)(F)CC2)nc(-c2nc(C)cs2)c1` [IN11146-013-P1] was “++ (++ means 200 nM-1000 nM)”; that for `Cc1cc(C)n(-c2nc(N[C@@H]3CCCC[C@H]3F)cc(N3CCOCC3)n2)n1` [IN11146-016-P1] was “+ (+ means >1 uM)”.
The value for `Cc1csc(-c2nc(NC3CCC(F)(F)CC3)cc(OC3CC3)n2)n1` [IN11146-033-P1, 6-cyclopropoxy-N-(4,4-difluorocyclohexyl)-2-(4-methylthiazol-2-yl)pyrimidin-4-amine] was “+ (+ means >1 uM)”; that for `Cc1cc(C)n(-c2cc(CO)cc(NC3CC(F)(F)C3)n2)n1` [IN11146-039-P1, (2-((3,3-difluorocyclobutyl)amino)-6-(3,5-dimethyl-1H-pyrazol-1-yl)pyridin-4-yl) methanol] was “+ (+ means >1 uM)”; that for `Cc1ccn(-c2cc(OC3CCS(=O)(=O)CC3)cc(NC3CCC(F)(F)CC3)n2)n1` [IN11146-089-P1, 4-((2-((4,4-difluorocyclohexyl)amino)-6-(3-methyl-1H-pyrazol-1-yl)pyridin-4-yl)oxy)tetrahydro-2H-thiopyran 1,1-dioxide] was “++ (++ means 200 nM-1000 nM)”.
Take `CSc1cc(NC2CCC(F)(F)CC2)nc(-c2nc(C)cs2)c1` [IN11147-026-P1, N-(4,4-difluorocyclohexyl)-6-(4-methylthiazol-2-yl)-4-(methylthio)pyridin-2-amine]: the “SC100 (μM)” value is “+++ (+++ means <200 nM)”.
Take `Cc1csc(-c2cc([S+](C)[O-])cc(NC3CCC(F)(F)CC3)n2)n1` (centres unmarked) [IN11147-031-P1, N-(4,4-difluorocyclohexyl)-4-(methylsulfinyl)-6-(4-methylthiazol-2-yl)pyridin-2-amine]: the “SC100 (μM)” value is on record as “++ (++ means 200 nM-1000 nM)”.
Regarding `Cc1csc(-c2cc(S(C)(=O)=O)cc(NC3CCC(F)(F)CC3)n2)n1` [IN11147-036-P1, N-(4,4-difluorocyclohexyl)-4-(methylsulfonyl)-6-(4-methylthiazol-2-yl)pyridin-2-amine], the “SC100 (μM)” value is “+++ (+++ means <200 nM)”.
As to `COc1cc(NC2CCC(F)(F)CC2)nc(-c2nc(C3CC3)cs2)n1` [IN11147-054-P1, 2-(4-cyclopropylthiazol-2-yl)-N-(4,4-difluorocyclohexyl)-6-methoxypyrimidin-4-amine], the “SC100 (μM)” value is “++ (++ means 200 nM-1000 nM)”.
`Cc1cc(NC2CCC(F)(F)CC2)nc(-c2nc(C3CC3)cs2)n1` [IN11147-062-P1, 2-(4-cyclopropylthiazol-2-yl)-N-(4,4-difluorocyclohexyl)-6-methylpyrimidin-4-amine]: the “SC100 (μM)” value is “+ (+ means >1 uM)”.
For the compound `CC(O)c1cc(NC2CCC(F)(F)CC2)nc(-c2nc(C3CC3)cs2)n1` (centres unmarked) [IN11147-066-P1, 1-(2-(4-cyclopropylthiazol-2-yl)-6-((4,4-difluorocyclohexyl)amino)pyrimidin-4-yl) ethan-1-ol], the “SC100 (μM)” value is on record as “++ (++ means 200 nM-1000 nM)”.
Take `CC(=O)c1cc(NC2CCC(F)(F)CC2)nc(-c2nc(C3CC3)cs2)n1` [IN11147-071-P1, 1-(2-(4-cyclopropylthiazol-2-yl)-6-((4,4-difluorocyclohexyl)amino)pyrimidin-4-yl) ethan-1-one]: the “SC100 (μM)” value is “+ (+ means >1 uM)”.
With `COCc1cc(NC2CCC(F)(F)CC2)nc(-c2nc(C3CC3)cs2)n1` [IN11147-077-P1, 2-(4-cyclopropylthiazol-2-yl)-N-(4,4-difluorocyclohexyl)-6-(methoxymethyl)pyrimidin-4-amine], the “SC100 (μM)” value was “++ (++ means 200 nM-1000 nM)”.
With `OCc1cc(NC2CCC(F)(F)CC2)nc(-c2nc(C3CC3)cs2)n1` [IN11147-082-P1, (2-(4-cyclopropylthiazol-2-yl)-6-((4,4-difluorocyclohexyl)amino)pyrimidin-4-yl) methanol], the “SC100 (μM)” value is “++ (++ means 200 nM-1000 nM)”.
Regarding `COc1cnc(-c2nc(C3CC3)cs2)nc1NC1CCC(F)(F)CC1` [IN11147-096-P1, 2-(4-cyclopropylthiazol-2-yl)-N-(4,4-difluorocyclohexyl)-5-methoxypyrimidin-4-amine], the “SC100 (μM)” value was “+++ (+++ means <200 nM)”.
Take `FC1(F)CCC(Nc2cc(OCc3cnco3)nc(-n3ccc(C4CC4)n3)n2)CC1` [IN11166-020-P1]: the “SC100 (μM)” value is on record as “++ (++ means 200 nM-1000 nM)”.
As for `FC1(F)CCC(Nc2cc(C3CC3)nc(-n3ccc(C4CC4)n3)n2)CC1` [IN11166-036-P1, 6-cyclopropyl-2-(3-cyclopropyl-1H-pyrazol-1-yl)-N-(4,4-difluorocyclohexyl)pyrimidin-4-amine], the “SC100 (μM)” value is reported as “++ (++ means 200 nM-1000 nM)”.
The value for `CC(=O)N1CC=C(c2cc(NC3CCC(F)(F)CC3)nc(-n3ccc(C4CC4)n3)n2)CC1` [IN11166-038-P1, 1-(4-(2-(3-cyclopropyl-1H-pyrazol-1-yl)-6-((4,4-difluorocyclohexyl)amino)pyrimidin-4-yl)-3,6-dihydropyridin-1(2H)-yl)ethan-1-one] was “+++ (+++ means <200 nM)”; that for `CC(=O)N1CCC(c2cc(NC3CCC(F)(F)CC3)nc(-n3ccc(C4CC4)n3)n2)CC1` [IN11166-042-P1, 1-(4-(2-(3-cyclopropyl-1H-pyrazol-1-yl)-6-((4,4-difluorocyclohexyl)amino)pyrimidin-4-yl)piperidin-1-yl)ethan-1-one] was “++ (++ means 200 nM-1000 nM)”; that for `CC(C)(C)c1ccn(-c2nc(NC3CCC(F)(F)CC3)cc(N3CCOCC3)n2)n1` [IN11177-025-P1, 2-(3-(tert-butyl)-1H-pyrazol-1-yl)-N-(4,4-difluorocyclohexyl)-6-morpholinopyrimidin-4-amine] was “+ (+ means >1 uM)”.
The value for `Cc1cc(NC2CCC(F)(F)CC2)nc(-n2ccc(C(C)(C)C)n2)n1` [IN11177-029-P1] was “++ (++ means 200 nM-1000 nM)”; that for `Cc1ccn(-c2cc(OCc3ncco3)cc(NC3CCC(F)(F)CC3)n2)n1` [IN11177-043-P1] was “++ (++ means 200 nM-1000 nM)”; that for `Cc1ccn(-c2nc(NC3CCC(F)(F)CC3)cc(N3CCN(C)C(=O)C3)n2)n1` [IN11177-049-P1] was “++ (++ means 200 nM-1000 nM)”.
On to `Cc1ccn(-c2cc(OCc3cnco3)cc(NC3CCC(F)(F)CC3)n2)n1` [IN11177-056-P1], for which the “SC100 (μM)” value is on record as “+++ (+++ means <200 nM)”.
Turning to `Cc1csc(-c2nc(NC3CCC(F)(F)CC3)cc(C(C)C)n2)n1` [IN11177-064-P1, N-(4,4-difluorocyclohexyl)-6-isopropyl-2-(4-methylthiazol-2-yl)pyrimidin-4-amine], the “SC100 (μM)” value is “++ (++ means 200 nM-1000 nM)”.
Turning to `N#Cc1ccn(-c2nc(NC3CCC(F)(F)CC3)cc(N3CCOCC3)n2)n1` [IN11177-068-P1], the “SC100 (μM)” value is recorded as “+ (+ means >1 uM)”.
On to `Cc1csc(-c2nc(NC3CCC(F)(F)CC3)cc(OCC#N)n2)n1` [IN11196-007-P1, 2-((6-((4,4-difluorocyclohexyl)amino)-2-(4-methylthiazol-2-yl)pyrimidin-4-yl)oxy)acetonitrile], for which the “SC100 (μM)” value is reported as “++ (++ means 200 nM-1000 nM)”.
As for `Cc1csc(-c2nc(NC3CCC(F)(F)CC3)cc(=O)n2CC#N)n1` [IN11196-007-P2, 2-(4-((4,4-difluorocyclohexyl)amino)-2-(4-methylthiazol-2-yl)-6-oxopyrimidin-1(6H)-yl)acetonitrile], the “SC100 (μM)” value is “+ (+ means >1 uM)”.

Source of the values: US10774064B2 (Cadent Therapeutics, Inc., priority 2016, dated 2020).
